What follows are compounds tested against human Factor Xa (Homo sapiens, UniProt P00742) (assay: In Vitro Enzyme Inhibitor Assay (Factor Xa inhibitory activity)). Conditions: human Factor Xa 0.5-5 nM, pH 8, 150 μM zinc chloride, 1 hour preincubation at room temperature, substrate MesOC-Norleu-Gly-Arg-pNA; read-out: Apparent inhibition constants (Ki).
Assay type: biochemical
Description: The following represents an assay for determining the Factor Xa inhibitory activity of compounds of Formula I.
Apparent inhibition constants (Ki) were calculated from the enzyme progress curves using standard mathematical models.

Sequence of human Factor Xa (P00742 235-488 limits assumed): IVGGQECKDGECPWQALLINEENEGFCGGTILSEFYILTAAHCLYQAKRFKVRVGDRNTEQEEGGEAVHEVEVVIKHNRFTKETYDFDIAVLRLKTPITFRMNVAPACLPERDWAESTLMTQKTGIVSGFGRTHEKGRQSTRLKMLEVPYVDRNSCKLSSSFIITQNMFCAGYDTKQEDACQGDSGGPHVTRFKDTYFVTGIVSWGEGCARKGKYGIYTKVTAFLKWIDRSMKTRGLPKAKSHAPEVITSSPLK
Sequence of human Factor Xa (P00742 41-179 partner limits assumed): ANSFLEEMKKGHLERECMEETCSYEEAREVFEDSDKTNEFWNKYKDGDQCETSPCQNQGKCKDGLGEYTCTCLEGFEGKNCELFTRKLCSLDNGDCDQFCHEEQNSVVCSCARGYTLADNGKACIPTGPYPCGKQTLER

| Compound | Ki |
| --- | --- |
| 6-(5-amidino-1H-benzimidazol-2-yl)-N-(2-morpholin-4-ylethyl)pyridine-5-carboxamide [Compound 69] | 40 nM |
| 6-(5-amidino-1H-benzimidazol-2-yl)-N-[2-(3,4-dichlorophenyl)ethyl]pyridine- 5-carboxamide [Compound 88] | 6 nM |
| 6-(5-amidino-1H-benzimidazol-2-yl)-N-[2-(4-methylphenyl)ethyl]pyridine-5-carboxamide [Compound 86] | 8 nM |
| CCCCc1ccc(-c2nc3cc(C(=N)N)ccc3[nH]2)nc1 [Compound 1] | 3 nM |
| Cc1c(-c2nc3cc(C(=N)N)ccc3[nH]2)ncn1Cc1ccccc1 [Compound 16, 2-(5-methyl-1-benzyl-1H-imidazol-4-yl)-1H-benzimidazole-5-carboxamidine] | 8 nM |
| CCCn1cnc(-c2nc3cc(C(=N)N)ccc3[nH]2)c1C [Compound 20, 2-(5-methyl-1-propyl-1H-imidazol-4-yl)-1H-benzimidazole-5-carboxamidine] | 7 nM |
| Cc1c(-c2nc3cc(C(=N)N)ccc3[nH]2)ncn1CCCN1C(=O)c2ccccc2C1=O [Compound 36, 2-{1-[3-(1,3-dioxo-1,3-dihydroisoindol-2-yl)propyl]-5-methyl-1H-imidazol-4-yl}-1H-benzimidazole-5-carboxamidine] | 5 nM |
| N=C(N)c1ccc2[nH]c(-c3nccn3CCCC(=O)N3CCOCC3)nc2c1 [Compound 98, 2-[1-(3-morpholin-4-ylcarbonylpropyl)-1H-imidazol-2-yl]-1H-benzimidazole-5-carboxamidine] | 2 nM |

Results, then the compound that gave them:

| Ki | Compound |
| --- | --- |
| 4 nM | N=C(N)c1ccc2[nH]c(-c3nccn3Cc3ccccc3)nc2c1 [Compound 17, 2-(1-benzyl-1H-imidazol-2-yl)-1H-benzimidazole-5-carboxamidine] |
| 5 nM | CCCCn1ccnc1-c1nc2cc(C(=N)N)ccc2[nH]1 [Compound 27, 2-(1-butyl-1H-imidazol-2-yl)-1H-benzimidazole-5-carboxamidine] |
| 5 nM | CCOC(=O)Cn1ccnc1-c1nc2cc(C(=N)N)ccc2[nH]1 [Compound 33, ethyl 2-(5-amidino-1H-benzimidazol-2-yl)imidazol-1-ylacetate] |
| 6 nM | N=C(N)c1ccc2[nH]c(-c3nccn3CCCCN3C(=O)c4ccccc4C3=O)nc2c1 [Compound 39, 2-{1-[4-(1,3-dioxo-1,3-dihydroisoindol-2-yl)butyl]-1H-imidazol-2-yl}-1H-benzimidazole-5-carboxamidine] |
| 10 nM | COc1ccc(CCNC(=O)c2ccnc(-c3nc4cc(C(=N)N)ccc4[nH]3)c2)cc1 [Compound 50, 6-(5-amidino-1H-benzimidazol-2-yl)-N-[2-(4-methoxyphenyl)ethyl]pyridine-4-carboxamide] |
| 2 nM | COc1ccc(CCNC(=O)c2ccc(-c3nc4cc(C(=N)N)ccc4[nH]3)nc2)cc1Br [Compound 57] |
| 3 nM | N=C(N)c1ccc2[nH]c(-c3nccn3CC(=O)NCCc3ccc(Cl)cc3)nc2c1 [Compound 90, 2-(5-amidino-1H-benzimidazol-2-yl)imidazol-1-yl-N-[2-(4-chlorophenyl)ethyl]acetamide] |
| 6 nM | N=C(N)c1ccc2[nH]c(-c3nccn3CC(=O)NCCc3ccc(O)cc3)nc2c1 [Compound 95, 2-(5-amidino-1H-benzimidazol-2-yl)imidazol-1-yl-N-[2-(4-hydroxyphenyl)ethyl]acetamide] |
| 30 nM | N=C(N)c1ccc2[nH]c(-c3nccn3CC(=O)NCCc3cccc4ccccc34)nc2c1 [Compound 96, 2-(5-amidino-1H-benzimidazol-2-yl)imidazol-1-yl-N-(2-naphth-1-ylethyl)acetamide] |
| 6 nM | N=C(N)c1ccc2[nH]c(-c3nccn3CCCC(=O)NCCc3ccc(Cl)cc3)nc2c1 [Compound 100, 4-[2-(5-amidino-1H-benzimidazol-2-yl)imidazol-1-yl]-N-[2-(4-chlorophenyl)ethyl]butyramide] |

Reference: patent US6150379A, “Compounds and compositions as anticoagulants” (Axys Pharmaceuticals, Inc., priority 1998, dated 2000)
